Measurements: patent US5814634A, “Alkylenediamine derivative anti-ulcer drug and antibacterial drug” (Shiseido Co. Ltd., priority 1996, dated 1998)

Tests used:
in vitro = conditions: rabbit, gastric mucosal cells
stress ulcer = test: WIS: Restraint and Water Immersion Stress-Induced Ulcer Inhibition Test; format: in vivo, rat (male Crj:SD or Slc:SD); conditions: for WIS: ulcer formation inhibitory rate: 100 mg/kg oral, rats, water immersion stress 7 hours; for effect (anti-ulcer tests): comparison of examples within compound group 1-1
Procedure: WIS: Restraint and Water Immersion Stress-Induced Ulcer Inhibition Test
The degree of inhibition of the stress ulcer formation is tested.
Male Crj:SD or Slc:SD rats (6 to 7-week-old) were fasted overnight, but allowed free access to water. Each group has 5 to 8 of these rats. The sample compound was dissolved or suspended in an aqueous solution of 0.3% sodium carboxymethylcellulose or 0.05% Tween 80 and then was orally administered (100 mg/10 ml/kg). To a control group, the vehicle was administered. 10 minutes later, the rats were placed in a stress cage and immersed to the level of xipfoid process in a water bath (21° C.) for 7 hours. At the end of the stress, the rats were sacrificed by inhalation of ether or carbon dioxide. Then, the stomach of each was removed, inflated by injecting 10 ml of 5% formalin neutral buffer solution, and immersed in 1% formalin neutral buffer solution for 30 minutes or more to be fixed. The stomach was incised along the greater curvature and then the length of each erosion in the glandular portion was determined under dissecting microscope. The sum of the length of erosions per stomach was defined as ulcer index (UI).
The effect obtained when 100 mg/kg of the sample compound had been administered was expressed as ulcer formation inhibitory rate (%) as follows: [formula] VOL, TAO: Acid Secretion Inhibition Test In Vivo i) Meaning

Male Slc:ICR mice = test system: Male Slc:ICR mice; parameters: species or system mouse (male Slc:ICR); conditions: mouse, in vivo
Procedure: AT: Single Dose Toxicity Pretest
Male Slc:ICR mice (5-week-old) were used. Each group has 3 to 5 mice and each mouse was fasted, but allowed free access to water, for 4 to 5 hours from 9 a.m. in the test day. Then, 2,000 mg/10 ml/kg of the sample compound dissolved or suspended in an aqueous solution of 0.5% sodium carboxymethyl cellulose was orally administered thereto. To a control, only the vehicle was administered. […] The body weight was measured before and after the fasting as well as at the same time everyday. The dead animals were immediately subjected to autopsy and their organs were observed microscopically. Also, the living animals were sacrificed with ether or carbon dioxide one week after the administration and then their organs were observed microscopically.
The toxicity at the single dose of 2,000 mg/kg of the sample compound was expressed as being classified into 5 levels.
5: Mortality rate is 0%; no toxicity is found at all both in behavior and organs.
4: Mortality rate is 0%; while no toxicity is found in organs, slight toxicity is observed in behavior and body weight increase.
3: While there is a dead animal (though not all the animals are dead), no toxicity is found in organs.
2: Regardless of whether there is a dead animal or not, toxicity is found in organs.
1: All the animals are dead.

[1] = test system: isolated gastric fundic gland; test: CAP: Acid Secretion Inhibition Test In Vitro ([14C]-aminopyrine uptake); format: cell-based, rabbit (male Japanese White); conditions: Oryctolagus cuniculus, 40 min; 10^-5 M compound, 10^-5 M histamine, rabbit isolated gastric fundic gland, 37° C., 40 minutes; read-out: CAP: acid secretion inhibitory rate
Procedure: With respect to the gastric juice volume (VOL) and the total acid output (TAO), the effects obtained when 100 mg/kg of the sample compound had been administered were expressed as their respective inhibitory rates (%) as follows: [formula] CAP: Acid Secretion Inhibition Test In Vitro i) Meaning
The acid secretion inhibitory activity in a cell level is studied. It can also be used for studying the mechanism of the effect.
ii-a) Preparation of isolated gastric fundus gland suspension
First, an isolated gastric fundic gland sample was prepared. […] Immediately thereafter, the stomach was removed and, after its pyloric and cardiac antrum were severed, incised along its greater curvature into two sheets. The gastric contents adhering to the mucosal surface was washed out with ice-cooled PBS (-) and then carefully washed therein. The gastric wall was spread on a cork board with its mucosal surface facing up and the feed and mucus thereon were completely removed with sterile gauze. The mucosa was separated therefrom by a spatula and then collected in ice-cooled PBS (-). After being washed twice with PBS (-), the mucosa was minced into 2-3 mm^3 pieces by scissors. These pieces were further washed twice with a nutrient solution. The nutrient solution comprises 132.4 mM of NaCl, 5.4 mM of KCl, 5 mM of Na2 HPO4.12H2 O, 1 mM of NaH2 PO4.2H2 O, 1.2 mM of MgSO4, 1 mM of CaCl2, 25 mM of HEPES, 2 mg/ml of glucose, and 1 mg/ml of BSA. Into 70 ml of the nutrient solution containing 1 mg/ml of collagenase, minced mucosal pieces were dispersed and intensely stirred in a conical flask with a stirrer at 37° C. for 40 to 60 minutes. During this period, 100% O2 was sprayed on the nutrient solution surface and the pH was appropriately measured such that it was immediately adjusted to pH 7.4, when the value was therebelow, with a base. The nutrient solution was added to the reaction solution so as to attain the total amount of about 200 ml. After being filtered through a mesh, the suspension was divisionally introduced into 50 ml centrifuge tubes and left for 15 minutes such that gastric fundic gland was deposited. The supernatant was repeatedly removed by an aspirator, dispersed in the nutrient solution, and then left such that the gastric fundic gland was washed three times. At this time, without using a pipette, the suspension was alternately introduced into two centrifuge tubes so as to effect dispersion. The number of cells was counted under microscope and adjusted to 1.6×10^6 cells/ml.
ii-b) [^14 C]-aminopyrine uptake test
Then, [^14 C]-aminopyrine uptake test was performed. After an Eppendorf tube was weighed, 10 μl (final concentration: 10^-5 M) of histamine dissolved in the above-mentioned nutrient solution, 10 μl (final concentration: 10^-5 M) of the test compound dissolved in DMSO, and 10 μl (final concentration: 0.05 μCi/ml) of [^14 C]-aminopyrine diluted with the nutrient solution were introduced therein and then 970 μl of the isolated gastric fundic gland suspension prepared above was added thereto. Subsequently, this mixture was shaken at 37° C. for 40 minutes at 125 cycles/minute. After being centrifuged for 30 minutes, 200 μl of its supernatant was collected into a mini-vial, while the rest was removed by an aspirator. The gland pellet was completely dried as the tube with its lid being opened was kept for one night in a drying oven at 80° C. and then the lid was closed and the weight was determined at room temperature. Then 100 μl of 1N KOH was added thereto and the tube with its lid being closed was treated at 60° C. for 1 to 2 hours so as to dissolve the pellet. Then, the contents thereof were transferred to a mini-vial. Into the mini-vial containing the supernatant or gland pellet, 4 ml of Atomlite™ was added and then the radioactivity was measured by a liquid scintillation counter. […]

| Compound | cytotoxicity at 4 h, 100 µM (in vitro) | WIS: ulcer formation inhibitory rate (stress ulcer) | inhibition at 10 µM [1] | other results |
| --- | --- | --- | --- | --- |
| CC(C)=CCOc1ccc(C(=O)NCCN2CCCCC2)cc1 [Example 1] | 1% | 67% |  |  |
| CC(C)=CCC/C(C)=C\COc1ccc(C(=O)NCCN2CCCCC2)cc1 [Example 2] |  | 79% |  | AT: toxicity at single dose, 5 levels (Male Slc:ICR mice): 3 |
| CC(C)=CCC/C(C)=C/COc1cccc(C(=O)NCCN2CCCCC2)c1 [Example 4] |  | 84% |  | AT: toxicity at single dose, 5 levels (Male Slc:ICR mice): 3 |
| CC(C)=CCC/C(C)=C/COc1ccccc1C(=O)NCCN1CCCCC1 [Example 5] | 21% | 78% |  |  |
| CC(C)=CCC/C(C)=C/CSc1ccccc1C(=O)NCCN1CCCCC1 [Example 7] |  | 87% |  | effect (anti-ulcer tests) (stress ulcer; result in words): the effect has been maintained |
| CCN(CCN1CCCCC1)C(=O)c1ccc(OC/C=C(\C)CCC=C(C)C)cc1 [Example 8] | 41% | 67% | 100% | effect (anti-ulcer tests) (stress ulcer; result in words): a sufficient effect can be obtained |
| CC(C)=CCC/C(C)=C/COc1ccc(C(=O)NCCN2CCCC(C)(C)C2)cc1 [Example 9] |  | 67% |  | effect (anti-ulcer tests) (stress ulcer; result in words): a sufficient effect can be obtained |
| CC(C)=CCC/C(C)=C/COc1ccc(C(=O)NCCN2CCCCC2)c(OC/C=C(\C)CCC=C(C)C)c1 [Example 12] | 38% | 75% |  |  |
| CC(C)=CCOc1ccc(C(=O)NCCN2CCCCC2)cc1OCC=C(C)C [Example 15] | 17% | 89% |  |  |
| CC(C)=CCOc1ccc(C(=O)NCCN2CCCCC2)c(OCC=C(C)C)c1 [Example 16] | 18% | 59% |  |  |
| CC(C)=CCOc1cc(OCC=C(C)C)cc(C(=O)NCCN2CCCCC2)c1 [Example 18] | 33% | 40% |  |  |
| COc1cccc(C(=O)NCCN2CCCCC2)c1OC/C=C(\C)CCC=C(C)C [Example 21] | 12% | 68% |  |  |
| COc1ccc(C(=O)NCCN2CCCCC2)c(OC/C=C(\C)CCC=C(C)C)c1 [Example 22] | 44% | 39% |  |  |
| COc1cc(C(=O)NCCN2CCCCC2)cc(OC)c1OC/C=C(\C)CCC=C(C)C [Example 26] | 17% | 72% |  | anti-ulcer effect (stress ulcer; result in words): more anti-ulcer effect |
| CC(C)=CCC/C(C)=C/COc1ccccc1C(=O)NCCN1CCOCC1 [Example 30] |  | 68% |  |  |
| CC(C)=CCC/C(C)=C/CSc1ccccc1C(=O)NCCN1CCOCC1 [Example 33] | 5% | 49% | 100% |  |
| CC(C)=CCC/C(C)=C/COc1ccc(C(=O)NCCN2CCOCC2)cc1OC/C=C(\C)CCC=C(C)C [Example 36] |  | 39% |  |  |
| CC(C)=CCC/C(C)=C/COc1ccc(C(=O)NCCN2CCOCC2)c(OC/C=C(\C)CCC=C(C)C)c1 [Example 37] |  | 71% |  |  |

| Compound | cytotoxicity at 4 h, 100 µM (in vitro) | WIS: ulcer formation inhibitory rate (stress ulcer) | inhibition at 10 µM [1] | other results |
| --- | --- | --- | --- | --- |
| CC(C)=CCC/C(C)=C/COc1cc(OC/C=C(\C)CCC=C(C)C)cc(C(=O)NCCN2CCOCC2)c1 [Example 38] | -12% | 55% |  |  |
| COc1ccc(OC/C=C(\C)CCC=C(C)C)c(C(=O)NCCN2CCOCC2)c1 [Example 40] |  | 70% |  |  |
| COc1cc(C(=O)NCCN2CCOCC2)cc(OC)c1OCC=C(C)C [Example 41] |  | 39% |  |  |
| CCN1CCN(CCNC(=O)c2ccc(OC/C=C(\C)CCC=C(C)C)cc2)CC1 [Example 45] | 30% | 36% | 99% |  |
| CC(C)=CCC/C(C)=C/COc1ccc(C(=O)NCCN2CCN(CCC(C)C)CC2)cc1 [Example 47] |  |  | 101% |  |
| CC(C)=CCC/C(C)=C/COc1ccc(C(=O)NCCN2CCN(CC(C)(C)C)CC2)cc1 [Example 48] |  |  | 100% |  |
| CCC(CC)CN1CCN(CCNC(=O)c2ccc(OC/C=C(\C)CCC=C(C)C)cc2)CC1 [Example 49] |  |  | 99.8% |  |
| CCCCN1CCN(CCNC(=O)c2ccc(OC/C=C(\C)CCC=C(C)C)cc2)CC1 [Example 50] |  |  | 95.9% |  |
| CCCCC(CC)CN1CCN(CCNC(=O)c2ccc(OC/C=C(\C)CCC=C(C)C)cc2)CC1 (centres unmarked) [Example 51] |  |  | 94.8% |  |
| CC(C)=CCC/C(C)=C/COc1ccc(C(=O)NCCN2CCN(c3ccccc3)CC2)cc1 [Example 52] | 11% |  | 99.1% |  |
| COc1ccc(N2CCN(CCNC(=O)c3ccc(OC/C=C(\C)CCC=C(C)C)cc3)CC2)cc1 [Example 53] | 7% |  | 98.7% |  |
| CC(C)=CCC/C(C)=C/COc1ccc(C(=O)NCCN2CCN(CC(=O)NC(C)C)CC2)cc1 [Example 54] |  |  | 100% |  |
| CC(C)=CCC/C(C)=C/COc1ccc(C(=O)NCCN2CCN(Cc3ccccc3)CC2)cc1 [Example 56] |  |  | 99.4% |  |
| CC(C)=CCC/C(C)=C/COc1ccc(C(=O)NCCN2CCN(Cc3ccc(F)cc3)CC2)cc1 [Example 57] |  |  | 99.4% |  |
| CC(C)=CCC/C(C)=C/COc1ccc(C(=O)NCCN2CCN(Cc3ccc4c(c3)OCO4)CC2)cc1 [Example 58] |  | 48% | 100% |  |
| CC(C)=CCC/C(C)=C/COc1ccc(C(=O)NCCN2CCN(c3nccs3)CC2)cc1 [Example 60] | 7% |  | 100% |  |
| CC(C)=CCC/C(C)=C/COc1ccc(C(=O)NCCN2CCN(c3ncccn3)CC2)cc1 [Example 61] | 3% |  | 100% |  |
